Experimental findings from ChEMBL document CHEMBL1127143, “New -lactam homologs of penems” (1993) are described below.

Molecules are shown by their SMILES. In brackets after ≈: the same amount, converted by molar mass.

The subject of one assay is actinomadura species. Kind of assay: Compound was tested for percent inhibition of D,D - Carboxypeptidase from Actinomadura sp. R39 at 100 uM concentration.
The next assay has as its system Staphylococcus aureus. Kind of assay: Minimum inhibitory concentration for the antibacterial activity against Staphylococcus aureus. The assay is classed as functional.

In the assay with actinomadura species, `CCSC1=C(C(=O)O)N2C(=O)C(NC(=O)Cc3ccccc3)CC2S1` (configuration not stated) showed an inhibition of 15%. In addition, 320 mg/L (≈ 845 µM) was the least that counted as inhibitory against Staphylococcus aureus (MIC).

As usually defined, the inhibition is the drop in the measured response relative to a control, in per cent. As usually defined, the MIC is the lowest concentration found to suppress growth.
